From ChEMBL document CHEMBL5214895, “3-Hydroxy-propanamidines, a New Class of Orally Active Antimalarials Targeting Plasmodium falciparum” (J Med Chem, 2021)
The source made the active and inactive calls. The rule behind the calls is not given here.

Legend:
[1] = test system: Plasmodium falciparum; assay: Antiplasmodial activity against multidrug resistant asexual blood stage Plasmodium falciparum Dd2 assessed as inhibition of parasite growth incubated for […] by HRP2-ELISA; format: functional, organism-based
[2] = Selectivity index, ratio of IC50 for cytotoxicity against human HepG2 cells to IC50 for antiplasmodial activity against chloroquine-sensitive asexual blood stage Plasmodium falciparum 3D7; format: toxicity, cell-based; details: read-out: Ratio IC50
[3] = test system: Plasmodium falciparum; assay: Antiplasmodial activity against chloroquine-sensitive asexual blood stage Plasmodium falciparum 3D7 assessed as inhibition of parasite growth incubated for […] by HRP2-ELISA; format: functional, organism-based
[4] = Cytotoxicity against human HepG2 cells assessed as inhibition of cell growth incubated for 24 hrs by neutral red dye based analysis; format: toxicity
[5] = test system: Plasmodium berghei; assay: Antimalarial activity against Plasmodium berghei infected in mouse assessed as mean survival days at 30 mg/kg, po administered for 4 times starting from 4 to 72 hrs and monitered for 30 days (reference value: 4 days); format: functional; details: time 30 day
[6] = test system: Plasmodium berghei; assay: Antimalarial activity against Plasmodium berghei infected in mouse assessed as reduction in parasitemia in blood at 30 mg/kg, po administered for 4 times starting from 4 to 72 hrs and measured after 96 hrs post infection (reference value: 0%); format: functional; parameters: scale not given: the % may be the effect or the level left
[7] = Cytotoxicity against human HeLa cells assessed as inhibition of cell growth incubated for 24 hrs by neutral red dye based analysis; format: toxicity
[8] = Selectivity index, ratio of IC50 for cytotoxicity against HEK293 cells to IC50 for antiplasmodial activity against chloroquine-sensitive asexual blood stage Plasmodium falciparum 3D7; format: toxicity, cell-based; details: human, read-out: Ratio IC50
[9] = Selectivity index, ratio of IC50 for cytotoxicity against human HeLa cells to IC50 for antiplasmodial activity against chloroquine-sensitive asexual blood stage Plasmodium falciparum 3D7; format: toxicity, cell-based; details: read-out: Ratio IC50
[10] = test system: Plasmodium berghei; assay: Antimalarial activity against Plasmodium berghei infected in mouse assessed as reduction in parasitemia in blood at 50 mg/kg, po administered for 4 times starting from 4 to 72 hrs and measured after 96 hrs post infection (reference value: 0%); format: functional; parameters: scale not given: the % may be the effect or the level left
[11] = Cytotoxicity against HEK293 cells assessed as inhibition of cell growth incubated for 24 hrs by neutral red dye based analysis; format: toxicity; details: human
[12] = test system: Plasmodium falciparum; assay: Inhibition of hemozoin formation in sorbitol-synchronized early ring stage plasmodium falciparum NF54 trophozoites assessed as increase in free heme level at 1 to 2.5 times IC50 incubated for 28 hrs by flow cytometry analysis; format: functional
[13] = test system: Plasmodium falciparum; assay: Inhibition of hemozoin formation in sorbitol-synchronized early ring stage plasmodium falciparum NF54 trophozoites assessed as reduction in hemozoin level at 1 to 2.5 times IC50 incubated for 28 hrs by flow cytometry analysis; format: functional
[14] = test system: Plasmodium falciparum; assay: Antiplasmodial activity against hyper mutating Plasmodium falciparum Dd2 harboring proofreading-deficient DNA polymerase delta assessed as inhibition of parasite growth incubated for 72 hrs by SYBR green-based assay; format: functional, organism-based; details: Dd2, 72 h
[15] = test system: Plasmodium berghei; assay: Antimalarial activity against Plasmodium berghei infected in mouse assessed as reduction in parasitemia in blood at 10 mg/kg, po administered for 4 times starting from 4 to 72 hrs and measured after 96 hrs post infection (reference value: 0%); format: functional; parameters: scale not given: the % may be the effect or the level left
[16] = test system: Plasmodium berghei; assay: Antimalarial activity against Plasmodium berghei infected in mouse assessed as mean survival days at 50 mg/kg, po administered for 4 times starting from 4 to 72 hrs and monitered for 30 days (reference value: 4 days); format: functional; details: time 30 day
[17] = test system: Plasmodium falciparum; assay: Antiplasmodial activity against multidrug resistant asexual blood stage Plasmodium falciparum Dd2-B2 assessed as inhibition of parasite growth incubated for 72 hrs by SYBR green-based assay; format: functional, organism-based; details: Dd2-B2, 72 h

SMILES	IC50 [1]	selectivity ratio [2]	IC50 [3]	IC50 at 24 h [4]	also measured
N=C(CC(O)c1cc2c(Cl)cc(Cl)cc2c2cc(C(F)(F)F)ccc12)NCCc1ccc(F)cc1 (centres undefined)	0.23 µM	21	0.35 µM	7.3 µM	
CCCCN(CCCC)CC(O)c1cc(Cl)cc2c1-c1ccc(Cl)cc1/C2=C/c1ccc(Cl)cc1 (centres undefined) [LUMEFANTRINE]	0.002 µM	20	0.006 µM	> 20 µM	MSD [5]: >30 days; Activity [6]: 99.8%
CC(C)(C)c1cc(C(O)C/C(N)=N/c2ccc(F)cc2)cc(C(C)(C)C)c1 (centres undefined)	0.35 µM		0.33 µM		
N=C(CC(O)c1cc2ccccc2c2ccccc12)NCc1ccccc1 (centres undefined)	1.5 µM	27	0.48 µM	13 µM	
N/C(CC(O)c1cc2c(F)cc(F)cc2c2cc(C(F)(F)F)ccc12)=N\CCc1ccc(F)cc1 (centres undefined)	0.12 µM		0.24 µM		
COc1ccc(/N=C(\N)CC(O)c2ccc(C(C)(C)C)cc2)cc1 (centres undefined)	2.4 µM	17	3.4 µM	56.2 µM	
N=C(CC(O)c1cc2ccccc2c2ccccc12)NCCc1ccccc1 (centres undefined)	10 µM	8	0.72 µM	5.7 µM	
N/C(CC(O)c1cc2c(Cl)cc(Cl)cc2c2cc(C(F)(F)F)ccc12)=N\OCc1ccc(F)cc1 (centres undefined)		122		34.1 µM	
COc1ccc(CC/N=C(\N)CC(O)c2cc3ccccc3c3ccccc23)cc1 (centres undefined)	0.7 µM	129	0.07 µM	9 µM	
COc1ccc2nccc(C(O)C/C(N)=N/c3ccc(F)cc3)c2c1 (centres undefined)	5.1 µM	86	2.1 µM	180 µM	
CCN(CC)Cc1cc(/N=C(\N)CC(O)c2cc3ccccc3c3ccccc23)ccc1O (centres undefined)	0.64 µM	304	0.05 µM	15.2 µM	
N=C(CC(O)c1cc2ccccc2c2ccccc12)NCc1ccc(F)cc1 (centres undefined)	20 µM	9	0.98 µM	9.2 µM	
C[C@H]1[C@H](OC(=O)CCC(=O)O)O[C@@H]2O[C@@]3(C)CC[C@H]4[C@H](C)CC[C@@H]1[C@@]24OO3 [ARTESUNATE]					MSD [5]: 9 days; Activity [6]: 99%
N=C(CC(O)c1cc2ccccc2c2ccccc12)NCCc1ccc(F)cc1 (centres undefined)	1.1 µM	16	0.33 µM	5 µM	
N/C(CC(O)c1ccnc2ccccc12)=N\c1ccc(F)cc1 (centres undefined)	5.6 µM	> 200	3.4 µM	> 200 µM	
Cl.N/C(CC(O)c1c2ccccc2cc2ccccc12)=N\c1ccc(F)cc1 (centres undefined)	0.009 µM	1500	0.005 µM	7.5 µM	IC50 at 24 h [7]: 127 µM; selectivity ratio [8]: 15700; selectivity ratio [9]: 25400; Activity [10]: 40%; IC50 at 24 h [11]: 78.3 µM
N/C(CC(O)c1cc2c(Cl)cc(Cl)cc2c2cc(C(F)(F)F)ccc12)=N\N1CCCCC1 (centres undefined)		1190		8.3 µM	
CC(C)(C)c1ccc(/N=C(\N)CC(O)c2ccc(C(C)(C)C)cc2)cc1 (centres undefined)	0.05 µM	236	0.05 µM	11.8 µM	
N/C(CC(O)c1cc2ccccc2c2ccccc12)=N\CCc1ccccn1 (centres undefined)	22.8 µM	3	15 µM	50.5 µM	
CCN(CC)CCCC(C)Nc1ccnc2cc(Cl)ccc12 (centres undefined) [CHLOROQUINE]					IC50 at 24 h [7]: > 1000 µM; inhibition [12]: Active; inhibition [13]: Active; MSD [5]: 21 days; Activity [6]: 99.9%; IC50 at 24 h [11]: > 1000 µM
CC(C)(C)c1ccc(C(O)C/C(N)=N/c2ccc(F)cc2)cc1 (centres undefined)	0.94 µM	38	1.5 µM	57.5 µM	
N/C(CC(O)c1cc2ccccc2c2ccccc12)=N\c1ccc(F)cc1 (centres undefined)	0.04 µM	344	0.027 µM	9.3 µM	
N/C(CC(O)c1cc2c(F)cc(F)cc2c2cc(C(F)(F)F)ccc12)=N\N=C\c1ccc(F)cc1 (centres undefined)					IC50 [14]: 0.0268 µM; Activity [15]: 99.5%; MSD [5]: 25 days; Activity [6]: 99.4%; MSD [16]: 22 days; Activity [10]: 99.9%; IC50 [17]: 0.0244 µM
